The subject of data set [1] is FVB/NHan mice inoculated with kainate (KA). Briefly: Mortality caused by kainate in mice (Kaplan-Meier). The format is in vivo. The following applies: 50 mg/kg i.p. How it is done:
All the animals included for the experimental process were 12-week old males of the FVB/NHan strain. The experiments were conducted strictly following the Guidance on the Operation of Animals (Scientific Procedures, Act. 1986). The animals had their respective quarantine period and were treated with maximum precaution to minimize possible contaminations for inoculations and handling. […]
The deaths were recorded during the entire time the assay lasted, and the results are shown in FIG. 8 by means of Kaplan-Meier survival curves. […]

Data set [2] deals with C57BL6 mice treated with Triton 1339 (Tyloxapol). The data set is described as follows: Hypocholesterolemic effect in induced hyperlipidemia model (Triton 1339). In kind it is in vivo. As to conditions: 50 mg/kg i.p. As for the experimental part:
In order to conduct the experiment on the fasting animals, blood was extracted by ocular puncture. The plasma was obtained from said blood, in which plasma total cholesterol levels and levels of its fractions were determined prior to administration of the substances under study. […] After thirty minutes, the animals were intraperitoneally inoculated with 50 mg/kg of each of the test compounds. Seven animals were treated with the vehicle alone and were considered the control group. […] Finally, a third group of seven mice received 50 mg/Kg of NST0037. Twenty-four hours after the treatments, blood was again extracted from the fasting animals and the plasma was obtained from said blood.

The test system of data set [3] is human neuroblastoma SK-N-MC cells. The data set is described as follows: Protection against neuronal death induced by apoptosis (camptothecin), WST-1. The following applies: 20 nM camptothecin. The format is cell-based. How it is done:
The assay was performed on human neuroblastoma SK-N-MC cells in culture from the American Type Culture Collection (ATCC), in all cases strict rules of sterility were followed and the manipulation was performed in class II biological safety cabinets following European standard EN 12469. The cells were maintained in the following culture medium: Minimum Essential Medium Eagle (MEM) supplemented with 1 mM sodium pyruvate, 2 mM L-glutamine, 0.1 mM non-essential amino acids, 0.05 mg/ml gentamicin and 10% fetal bovine serum.
The inhibition caused by compound NST0037 of cell death caused by treatment with camptothecin generating cell cycle arrest was analyzed. Camptothecin is an inhibitor of Topoisomerase I, it therefore prevents DNA duplication and triggers cell cycle arrest and death due to apoptosis. These cells, not exceeding 15 passages, were seeded on 96-well plates treated for adherent cells with a cell concentration of 5×10^4 cells/well; 3 wells of the plate were seeded for each condition of the assay.
After 24 hours of cell incubation at 37° C. and 5% CO2, the cell treatments were performed with 100 μl of total volume for the following conditions: • Control: culture medium (medium) • Camptothecin (CPT): medium plus camptothecin 20 nM, causing death of 50% of the cells. • Camptothecin plus NST0037: medium plus camptothecin (20 nM) plus NST0037 at 1, 4, 10, 20, 40 or 100 μM.
The cells were incubated (at 37° C. and 5% CO2) with these treatments for 22 hours, after which time the WST-1 reagent (Roche) was added. The Test WST-1 is based on the measurement of metabolic activity. Cell damage causes the loss of the ability of cells to obtain the energy necessary to maintain their metabolic functions and cell growth, therefore the metabolically active (live) cells reduce tetrazolium salt to formazan by means of the succinate-tetrazolium reductase system (of the mitochondrial respiratory chain). The formazan which is formed can be detected colorimetrically since it has an absorbance of 440 nm. The reading was taken in a plate reader at 440 nm 2 hours after adding the reagent.
On the technique in general: Tetrazolium dyes change colour on reduction, which living cells bring about.

Another data set has as its system adult zebrafish. The data set is described as follows: Single-dose toxicity assay (24 hours exposure in water) in adult zebrafish. As to conditions: 14 days post-treatment.

Each structure is given as a SMILES string.

The record followed here is US20140309295A1, “ANTIEPILEPTIC, HYPOCHOLESTEROLEMIC AND NEUROPROTECTIVE COMPOUND” (NEURON BIOPHARMA, S.A., priority 2009, published 2014).

Description for adult zebrafish: Subsequently they were fed like the rest of the animals. • Weight of the animals: they were weighed at time 0 (before the treatment), at 7 and at 14 days post-treatment.
In this case, the weight of the animals of the different study groups at three established times: before starting the treatments (0 dpt), at day 7 post-treatment and at day 14 post-treatment, was used as a toxicity parameter. […] To that end, the fish were sacrificed at 14 days post-treatment (previously anesthetized) and the samples (whole fish) were included in paraffin. The hematoxylin-eosin staining was subsequently performed in order to conduct the histopathological studies, obtaining a minimum of 6 longitudinal sections per animal, for the purpose of collecting different study areas of the same organ. The following organs were studied: brain, kidney, pancreas, intestine, eye, gills, ovary, testicle, muscle and liver.

`CCC(CC)C(=O)O[C@H]1C[C@@H](C)C=C2C=C[C@H](C)[C@H](CC[C@@H]3C[C@@H](O)CC(=O)O3)[C@H]21` [NST0037, (1S,2S,6R,8S,8aR)-1,2,6,7,8,8a-hexahydro-3,7-dimethyl-8-[2-[(2R,4R)-tetrahydro-4-hydroxy-6-oxo-2H-pyran-2-yl]ethyl]-1-naphthalenyl-2-ethyl-butyrate]: in data set [1] (NST0037+KA+NST0037 regimen), the “mortality caused by KA (survival)” value is reported as “protected against death”. For the same compound, the “survival of the animals vs PBS+KA+PBS” value in data set [1] (PBS+KA+NST0037 regimen) is “increases”. Besides, in data set [2] (24 hours after Triton 1339), the HDL-c levels entry is listed as “not being changed”, the LDL-c levels entry is recorded as “reduction being statistically significant”, the VLDL-c levels entry was “Only simvastatin reduced” and the “esterified cholesterol (EC) levels” value is given as “reduced”. For the same compound, the “free cholesterol (FC) levels” value in data set [2] (24 hours after Triton 1339) is “reduced the levels of this fraction in a similar manner”. In addition, the total cholesterol increase result in data set [2] (24 hours after Triton 1339 500 mg/kg) is “hypocholesterolemic effect, being statistically significant”. In addition, in data set [3] (4 μM NST0037), the “protection against death caused by camptothecin” value (shortened to “protection against death caused”) is given as 18%. In data set [3] (10 μM NST0037), the “protection against death caused” value was 28%. Further, the “protection against death caused” value in data set [3] (40 μM NST0037) is reported as 27%. In addition, in data set [3] (100 μM NST0037), the “protection against death caused” value is 27%. Also, in the data set on adult zebrafish (2000 mg/Kg), the “histopathology: intestine” value is reported as “Atrophy signs in the intestinal villi” and the “histopathology: liver” value is “discrete inflammation areas”. Besides, the “weight of the animals” value in the data set on adult zebrafish (2000 mg/kg, 24 hours exposure in water) is on record as “did not modify the weight”.
